Laboratory results published in US5563156A, “Thrombin inhibitors” (Merrell Pharmaceuticals Inc., priority 1991, dated 1996).

Key:
Type in all cases: biochemical
[1] = molecular target: HUMAN LUNG TRYPTASE; test: In vitro inhibition of human lung tryptase, rate constants by progress curve analysis; conditions: nonlinear regression (ENZFITTER)
Procedure: Using standard in vitro methodology for determining inhibitory activity of tryptase (Journal of Biological Chemistry, Vol. 261, Jun. 5, pp. 7322-7379, 1986), the following results have been obtained:
^a Rate constants were determined by progress curve analysis using a
nonlinear regression program (ENZFITTER)

[2] = system: human plasma; test: Anticoagulant effect in human plasma, thrombin time (TT)
Description: (§1) Anticoagulant data may be represented as follows:

[3] = system: human plasma; test: Anticoagulant effect in human plasma, activated partial thromboplastin time (aPTT)
Description: as §1

Compound | Ki [1] [nM] | koff [1] [s⁻¹] | kon [1] [M⁻¹ s⁻¹] | ID2 TT (amount required for doubling the clotting time) [2] [µM] | ID2 a PTT (amount required for doubling the clotting time) [3] [µM]
Cl.Cl.N=C(N)NCCCC(NC(=O)[C@@H]1CCCN1C(=O)[C@H]1Cc2ccccc2CN1)C(=O)C(F)(F)C(F)(F)F.O (stereo partly drawn) [D-3-TIC--Pro--Arg--CF2 CF3, L-Prolinamide, N-[2-[3-[(aminoiminomethyl)amino]propyl]-3,3,4,4,4-pentafluoro-2-oxobutyl]-1-D-[(1,2,3,4-tetrahydro-3-isoquinolinyl)carbonyl]-, dihydrochloride, hydrate] | 75 | 0.00034 | 4700 ± 200 | – | –
CC(=O)O.F.N=C(N)NCCCC(NC(=O)[C@@H]1CCCN1C(=O)[C@H](N)Cc1ccccc1)C(=O)C(F)(F)F.O (stereo partly drawn) [D-Phe--Pro--Arg--CF3, L-Prolinamide, N-D-phenylalanyl-N-[1-[3-[(amino]iminomethyl)amino]propyl]-3,3,3-trifluoro-2-oxopropyl]-, hydrofluoride, acetate, hydrate] | 500 | – | – | – | –
CC(=O)O.F.N=C(N)NCCCC(NC(=O)[C@@H]1CCCN1C(=O)[C@H](N)Cc1ccccc1)C(=O)C(F)(F)F.O (stereo partly drawn) [D-Phe--Pro--Arg--CF3] | – | 0.00015 | 290 ± 20 | 43 | 148
L-Prolinamide, N-methyl-D-phenylalanyl-N-[1-[3-[(aminoiminomethyl) amino]propyl]-3,3,3-trifluoro-2-oxopropyl]-, dihydrochloride, hydrate [D-CH3 Phe--Pro--Arg--CF3] | 80 | 1.5e-05 | 200 ± 10 | 108 | 218
